Measurements from PubChem BioAssay AID330 (DTP/NCI, 2004).
Where “and” joins values, the source holds several entries; their conditions need not be identical. Identical values can stand only once. Inconclusive results and toxic doses are left out.

Test system: P388 leukemia ip, CD2F1 mice, survival T/C
Experiment: NCI In Vivo Anticancer Drug Screen. Data for tumor model P388 Leukemia (intraperitoneal) in CD2F1 (CDF1) mice
Settings: endpoint: median survival time, higher = longer survival
Summary of the method: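 Mice carrying the transplanted tumor received test compound or vehicle. Survival was recorded in each group, and the value is the treated-group measurement divided by that of the vehicle-treated control group.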

[1] = dose: 100.0 mg/kg/injection, schedule: Q04DX003 (ip), vehicle: Klucel (hydroxypropylcellulose) (HPC)
[2] = dose: 200.0 mg/kg/injection, schedule: Q04DX003 (ip), vehicle: Klucel (hydroxypropylcellulose) (HPC)
[3] = dose: 60.0 mg/kg/injection, schedule: Q01DX005 (ip), vehicle: Klucel (hydroxypropylcellulose) (HPC)
[4] = dose: 120.0 mg/kg/injection, schedule: Q01DX005 (ip), vehicle: Klucel (hydroxypropylcellulose) (HPC)
[5] = dose: 240.0 mg/kg/injection, schedule: Q01DX005 (ip), vehicle: Klucel (hydroxypropylcellulose) (HPC)
[6] = dose: 50.0 mg/kg/injection, schedule: Q01DX009 (ip), vehicle: saline with Tween-80
[7] = dose: 100.0 mg/kg/injection, schedule: Q01DX009 (ip), vehicle: saline with Tween-80
[8] = dose: 200.0 mg/kg/injection, schedule: Q01DX009 (ip), vehicle: saline with Tween-80
[9] = dose: 50.0 mg/kg/injection, schedule: Q01DX005 (ip), vehicle: Klucel (hydroxypropylcellulose) (HPC)
[10] = dose: 100.0 mg/kg/injection, schedule: Q01DX005 (ip), vehicle: Klucel (hydroxypropylcellulose) (HPC)
[11] = dose: 100.0 mg/kg/injection, schedule: Q04DX003 (ip), vehicle: saline with Tween-80
[12] = dose: 200.0 mg/kg/injection, schedule: Q01DX005 (ip), vehicle: Klucel (hydroxypropylcellulose) (HPC)
[13] = dose: 200.0 mg/kg/injection, schedule: Q04DX003 (ip), vehicle: saline with Tween-80
[14] = dose: 400.0 mg/kg/injection, schedule: Q04DX003 (ip), vehicle: saline with Tween-80
[15] = dose: 25.0 mg/kg/injection, schedule: Q01DX009 (ip), vehicle: saline with Tween-80
[16] = dose: 50.0 mg/kg/injection, schedule: Q01DX005 (ip), vehicle: saline with Tween-80
[17] = dose: 100.0 mg/kg/injection, schedule: Q01DX005 (ip), vehicle: saline with Tween-80
[18] = dose: 200.0 mg/kg/injection, schedule: Q01DX005 (ip), vehicle: saline with Tween-80

Compound: O=C1NC2(CCCCC2)C(=O)N1CCCN(CCCl)CCCl
- T/C (dose: 1.5 mg/kg/injection, schedule: Q01DX005 (ip), vehicle: saline): 121 % of control
- T/C (dose: 6.0 mg/kg/injection, schedule: Q01DX005 (ip), vehicle: saline): 153 % of control and 156 % of control
- T/C (dose: 12.0 mg/kg/injection, schedule: Q01DX005 (ip), vehicle: saline): 178 % of control and 200 % of control and 208 % of control
- T/C (dose: 24.0 mg/kg/injection, schedule: Q01DX005 (ip), vehicle: saline): 162 % of control and 210 % of control

Compound: CC1(C)CC(c2ccccc2)C(c2ccccc2)C(=O)O1 (stereo unspecified)
- T/C [1]: 93 % of control
- T/C [2]: 92 % of control

Compound: O=C(Nc1ccc(NC(=O)Nc2ccc(C3=NCCN3)cc2)cc1)Nc1ccc(C2=NCCN2)cc1
- T/C (dose: 110.0 mg/kg/injection, schedule: Q01DX010 (ip), vehicle: saline): 118 % of control
- T/C (dose: 165.0 mg/kg/injection, schedule: Q01DX010 (ip), vehicle: saline): 118 % of control

Compound: Cc1nc(C)n2cnnc2c1C
- T/C (dose: 100.0 mg/kg/injection, schedule: Q04DX003 (ip), vehicle: saline): 96 % of control
- T/C (dose: 200.0 mg/kg/injection, schedule: Q04DX003 (ip), vehicle: saline): 95 % of control

Compound: COC1=CC(C)C2CC3OC(O)CC4C(C)=C(OC)C(=O)C(C2(C)C1=O)C34C (stereo unspecified)
- T/C [3]: 94 % of control
- T/C [4]: 94 % of control
- T/C [5]: 89 % of control

Compound: CC(=O)NC1C(=O)OC(C(O)CO)C1O (stereo unspecified)
- T/C (dose: 12.5 mg/kg/injection, schedule: Q01DX009 (ip), vehicle: water): 106 % of control
- T/C (dose: 25.0 mg/kg/injection, schedule: Q01DX009 (ip), vehicle: water): 91 % of control
- T/C (dose: 50.0 mg/kg/injection, schedule: Q01DX009 (ip), vehicle: water): 94 % of control
- T/C (dose: 100.0 mg/kg/injection, schedule: Q01DX009 (ip), vehicle: water): 102 % of control
- T/C (dose: 200.0 mg/kg/injection, schedule: Q01DX009 (ip), vehicle: water): 98 % of control

Compound: C=CCc1ccc(OC(=O)Nc2ccc(C)cc2[N+](=O)[O-])c(OC)c1
- T/C [6]: 88 % of control
- T/C [7]: 88 % of control
- T/C [8]: 95 % of control

Compound: Cc1c(Cc2ccccc2)[n+](=O)c2ccccc2n1[O-]
- T/C [9]: 92 % of control
- T/C [10]: 95 % of control
- T/C [1]: 100 % of control
- T/C [11]: 101 % of control
- T/C [12]: 99 % of control
- T/C [2]: 98 % of control
- T/C [13]: 110 % of control
- T/C (dose: 400.0 mg/kg/injection, schedule: Q01DX005 (ip), vehicle: Klucel (hydroxypropylcellulose) (HPC)): 94 % of control
- T/C (dose: 400.0 mg/kg/injection, schedule: Q04DX003 (ip), vehicle: Klucel (hydroxypropylcellulose) (HPC)): 104 % of control
- T/C [14]: 118 % of control

Compound: CC1N/C(=C/c2ccccc2)C(=O)O1 (stereo unspecified)
- T/C [15]: 106 % of control
- T/C [6]: 110 % of control
- T/C [7]: 105 % of control and 123 % of control
- T/C [8]: 117 % of control and 96 % of control

Compound: Nc1ncnc2c1ncn2CC(O)CN(CCO)CCO (stereo unspecified)
- T/C (dose: 60.0 mg/kg/injection, schedule: Q01DX005 (ip), vehicle: saline): 97 % of control
- T/C (dose: 120.0 mg/kg/injection, schedule: Q01DX005 (ip), vehicle: saline): 95 % of control
- T/C (dose: 240.0 mg/kg/injection, schedule: Q01DX005 (ip), vehicle: saline): 96 % of control

Compound: NNC(=O)C(=O)Nc1ccc(F)cc1
- T/C [6]: 96 % of control
- T/C [7]: 100 % of control

Compound: O=C(N/N=C/c1ccccc1O)c1ccccc1O
- T/C [16]: 100 % of control
- T/C [17]: 96 % of control
- T/C [18]: 99 % of control

Compound: CCCCCCCCCC(O)(CSc1ccccc1)CSc1ccccc1
- T/C [6]: 99 % of control
- T/C [7]: 100 % of control
- T/C [8]: 114 % of control

Compound: COC(=O)C1CCC2c3ccccc3C(C1)c1ccccc12 (stereo unspecified)
- T/C [7]: 90 % of control
- T/C [11]: 90 % of control
- T/C [8]: 118 % of control
- T/C [13]: 100 % of control
- T/C (dose: 400.0 mg/kg/injection, schedule: Q01DX009 (ip), vehicle: saline with Tween-80): 118 % of control
- T/C [14]: 100 % of control

Compound: CCOC(=O)C(NC(=O)C(Cc1ccc(N(CCCl)CCCl)cc1)NC(C)=O)C(C)C (stereo unspecified)
- T/C (dose: 3.13 mg/kg/injection, schedule: Q04DX003 (ip), vehicle: saline): 100 % of control
- T/C (dose: 6.25 mg/kg/injection, schedule: Q04DX003 (ip), vehicle: saline): 109 % of control
- T/C (dose: 12.5 mg/kg/injection, schedule: Q04DX003 (ip), vehicle: saline): 118 % of control
- T/C [15]: 160 % of control
- T/C [6]: 180 % of control
- T/C (dose: 50.0 mg/kg/injection, schedule: Q04DX003 (ip), vehicle: saline with Tween-80): 159 % of control
- T/C [7]: 245 % of control
- T/C [11]: 163 % of control and 175 % of control
- T/C (dose: 150.0 mg/kg/injection, schedule: Q04DX003 (ip), vehicle: other): 151 % of control
- T/C (dose: 160.0 mg/kg/injection, schedule: Q04DX003 (ip), vehicle: other): 161 % of control
- T/C [13]: 154 % of control
- T/C (dose: 300.0 mg/kg/injection, schedule: Q04DX003 (ip), vehicle: other): 174 % of control
- T/C (dose: 400.0 mg/kg/injection, schedule: Q04DX003 (ip), vehicle: other): 159 % of control

Compound: COc1ccc(/C=C/C2C(C#N)(C#N)C(OC)(OC)C2(OC)OC)cc1 (stereo unspecified)
- T/C [3]: 101 % of control
- T/C [4]: 102 % of control
- T/C [5]: 98 % of control

Compound: Fc1ccc(N2C(Cl)(Cl)C23c2ccccc2-c2ccccc23)cc1
- T/C (dose: 12.5 mg/kg/injection, schedule: Q01DX009 (ip), vehicle: saline with Tween-80): 104 % of control
- T/C [15]: 103 % of control
- T/C [6]: 94 % of control
- T/C [7]: 103 % of control
- T/C [8]: 112 % of control

Compound: O=C1CSCN1N1CSCC1=O
- T/C [16]: 101 % of control
- T/C [17]: 102 % of control
- T/C [18]: 98 % of control

Compound: Cc1ccc(NC(=O)Oc2ccc(OCc3ccccc3)cc2)c([N+](=O)[O-])c1
- T/C [6]: 99 % of control
- T/C [7]: 97 % of control
- T/C [8]: 95 % of control

Compound: N#CC(C#N)=C1c2ccccc2C(=O)c2ccccc21
- T/C [9]: 88 % of control
- T/C [10]: 88 % of control
- T/C [12]: 92 % of control

Compound: ClCCN1c2ccc3ccccc3c2Sc2c1ccc1ccccc21
- T/C [16]: 96 % of control
- T/C [17]: 92 % of control
- T/C [18]: 97 % of control

Compound: ON=C1C2C=CC=CC1C=C2
- T/C (dose: 6.25 mg/kg/injection, schedule: Q01DX009 (ip), vehicle: saline): 90 % of control
- T/C (dose: 12.5 mg/kg/injection, schedule: Q01DX009 (ip), vehicle: saline): 96 % of control
- T/C (dose: 25.0 mg/kg/injection, schedule: Q01DX009 (ip), vehicle: saline): 90 % of control

Compound: Cc1c2cnccc2c(C)c2c1c1ccccc1n2Cc1ccccc1
- T/C (dose: 6.25 mg/kg/injection, schedule: Q04DX003 (ip), vehicle: distilled water + Tween-80): 97 % of control
- T/C (dose: 12.5 mg/kg/injection, schedule: Q04DX003 (ip), vehicle: distilled water + Tween-80): 95 % of control
- T/C (dose: 25.0 mg/kg/injection, schedule: Q04DX003 (ip), vehicle: distilled water + Tween-80): 95 % of control
- T/C (dose: 50.0 mg/kg/injection, schedule: Q04DX003 (ip), vehicle: distilled water + Tween-80): 95 % of control
- T/C (dose: 100.0 mg/kg/injection, schedule: Q04DX003 (ip), vehicle: distilled water + Tween-80): 99 % of control
- T/C (dose: 200.0 mg/kg/injection, schedule: Q04DX003 (ip), vehicle: distilled water + Tween-80): 94 % of control

Compound: CCCCc1c(C#N)c(=O)n2c(N)c(C(=O)OCC)cnc2c1SC
- T/C (dose: 3.75 mg/kg/injection, schedule: Q01DX005 (ip), vehicle: saline with Tween-80): 104 % of control and 108 % of control
- T/C (dose: 7.5 mg/kg/injection, schedule: Q01DX005 (ip), vehicle: saline with Tween-80): 117 % of control and 120 % of control
- T/C (dose: 15.0 mg/kg/injection, schedule: Q01DX005 (ip), vehicle: saline with Tween-80): 120 % of control
- T/C (dose: 60.0 mg/kg/injection, schedule: Q01DX005 (ip), vehicle: saline with Tween-80): 98 % of control
- T/C (dose: 120.0 mg/kg/injection, schedule: Q01DX005 (ip), vehicle: saline with Tween-80): 92 % of control

Compound: N=C(N)c1ccc(N=Nc2ccc(N)cc2N)cc1
- T/C [3]: 120 % of control
- T/C [4]: 124 % of control
